Assay results reported in patent US11746102B2, “Polymorphs of selinexor” (Karyopharm Therapeutics Inc., priority 2014, dated 2023).

Experiments:
Type in all cases: physicochemical
[1] = Particle size analysis (Malvern MS2000, volume-based); conditions: for d10: 10% of total particle volume no larger than this size, 0.1% lecithin in Isopar G dispersant; for d50: 50% of total particle volume no larger than this size; for d50 / d90 / D[4,3] Volume weighted mean: lecithin in Isopar G dispersant; for d90: 90% of total particle volume no larger than this size; for D[4,3] Volume weighted mean: in µm; for Characteristic of the particle size distribution: overlay of particle size distributions
Excerpt: Particle size data was acquired using a Malvern Instruments MS2000 equipped with a Hydro2000 μP dispersion unit. Data was collected and analyzed using Mastersizer 2000 v 5.60 software, using volume-based measurements. NIST-traceable glass beads were used as the reference standard.
Details of the method conditions used to analyze particle size are listed below: • Sample refractive index: 1.596 • Sample absorption: 0.001 • Dispersant: 0.100 (w/v) Lecithin in Isopar G • Dispersant refractive index: 1.42 • Pump speed: 2100 rpm • Recirculation time: 2 minutes • Sample measurement time: 30 sec. • Background measurement time: 30 sec. • Model: general purpose • Sensitivity: normal • Particle shape: irregular.
One particle size measurement of each lot of selinexor described in Examples 1-6 was collected using the particle size method conditions described above. Table 4 provides sample information and particle size analysis data for the indicated lot of selinexor under the particle size method analysis conditions described above. FIGS. 5A-5P are particle size distribution graphs and show the particle size distribution of the sample corresponding to the indicated lot of selinexor under the particle size method analysis conditions described above.

[2] = Polymorphism studies (cooling, slow evaporation, maturation; XRPD); conditions: 8 days maturation RT/50° C., solids analysed by XRPD
Experimental: Samples found as clear solutions at −20° C. were placed for slow evaporation at RT using a 25-gauge syringe needle(s) in the septum of the vial. • The solid suspensions observed in 100 volumes of the relative solvent systems at the end of the solubility assessment were placed for 8 days maturation cycling between RT and 50° C. (cycling 4 hours at RT; 4 hours at 50° C.). After the maturation, the solids were recovered and the supernatants were placed for slow evaporation. All the solids obtained by these processes were analyzed by XRPD.

[3] = Stability of Form A on exposure to humidity/temperature
Experimental: A comprehensive polymorphism assessment of selinexor was performed in a range of different solvents, solvent mixtures and under a number of experimental conditions based on the solubility of selinexor. Three anhydrous polymorphs of selinexor were observed by XRPD investigation, designated Form A, Form B and Form C.

[4] = Competitive slurry experiment (Form A, Form C, seed of Form B); conditions: about 1:1 Form A and Form C with Form B seed; matured at 5, 25, 50° C. in ethyl acetate, 30% IPA:70% water, 30% ethanol:70% water; 72 hours and 1 week; in acetonitrile the solvate formed
Experimental: In a competitive slurry experiment, approximately 1:1 mixtures of Form A and Form C were prepared. The mixtures were then stirred with a seed of Form B (about 5% by weight of the mixture of Form A and Form C). The produced systems were matured at 5° C., 25° C. and 50° C. under stirring in acetonitrile, ethyl acetate, 30% IPA:70% water and 30% ethanol:70% water. The systems were analyzed by XRPD at two different time points: 72 hours and 1 week.
Form D was observed by maturation in acetonitrile. This experiment confirmed Form A as the stable form, compared to Form B and Form C, under the conditions investigated. The presence of acetonitrile led to solvate formation at all of the temperatures investigated.

[5] = Solubility assessment (visual) of selinexor in solvents and solvent mixtures; conditions: for Solubility: starting Form A

## O=C(/C=C\n1cnc(-c2cc(C(F)(F)F)cc(C(F)(F)F)c2)n1)NNc1cnccn1 [Lot No. 1405463]
[1]; listed as 1405463
  d10: 12.062 μm
  d50: 27.653 μm
  d90: 64.876 μm
  D[4,3] Volume weighted mean: 33.740

## O=C(/C=C\n1cnc(-c2cc(C(F)(F)F)cc(C(F)(F)F)c2)n1)NNc1cnccn1 [Form A]
[2]
  Stability of the form under solvent-based experimentation: stable in most of the conditions investigated
[3]; exposed for 4 weeks to 25° C./97% relative humidity (RH)
  Physico-chemical stability: stable
[3]; exposed for 4 weeks to 40° C./75% RH
  Physico-chemical stability: stable
[4]
  Relative stability of forms in competitive slurry: stable anhydrous form

## O=C(/C=C\n1cnc(-c2cc(C(F)(F)F)cc(C(F)(F)F)c2)n1)NNc1cnccn1 [Lot No. 1305365]
[1]; listed as 1305365
  d10: 4.905 μm
  d50: 14.268 μm
  d90: 75.098 μm
  D[4,3] Volume weighted mean: 34.740

## O=C(/C=C\n1cnc(-c2cc(C(F)(F)F)cc(C(F)(F)F)c2)n1)NNc1cnccn1 [Lot No. PC-14-008]
[1]; listed as PC-14-008
  d10: 7.658 μm
  d50: 18.290 μm
  d90: 42.616 μm
  D[4,3] Volume weighted mean: 22.451
  Characteristic of the particle size distribution: more a unimodal characteristic

## O=C(/C=C\n1cnc(-c2cc(C(F)(F)F)cc(C(F)(F)F)c2)n1)NNc1cnccn1 [Lot No. 1341-AK-109-2]
[1]; listed as 1341-AK-109-2
  d10: 2.815 μm
  d50: 10.423 μm
  d90: 89.782 μm
  D[4,3] Volume weighted mean: 32.779
  Characteristic of the particle size distribution: distinctly bimodal

## O=C(/C=C\n1cnc(-c2cc(C(F)(F)F)cc(C(F)(F)F)c2)n1)NNc1cnccn1 [Lot No. PC-14-009]
[1]; listed as PC-14-009
  d10: 9.665 μm
  d50: 24.406 μm
  d90: 68.445 μm
  D[4,3] Volume weighted mean: 32.557
  Characteristic of the particle size distribution: more a unimodal characteristic

## O=C(/C=C\n1cnc(-c2cc(C(F)(F)F)cc(C(F)(F)F)c2)n1)NNc1cnccn1 [Lot No. 1339-BS-142-1]
[1]; listed as 1339-BS-142-1
  d10: 4.978 μm
  d50: 11.969 μm
  d90: 28.331 μm
  D[4,3] Volume weighted mean: 16.614
  Characteristic of the particle size distribution: more a unimodal characteristic

## O=C(/C=C\n1cnc(-c2cc(C(F)(F)F)cc(C(F)(F)F)c2)n1)NNc1cnccn1 [Lot No. 1339-BS-142-2]
[1]; listed as 1339-BS-142-2
  d10: 6.088 μm
  d50: 14.468 μm
  d90: 33.936 μm
  D[4,3] Volume weighted mean: 20.889
  Characteristic of the particle size distribution: more a unimodal characteristic

## O=C(/C=C\n1cnc(-c2cc(C(F)(F)F)cc(C(F)(F)F)c2)n1)NNc1cnccn1 [Lot No. PC-14-005]
[1]
  Minor tertiary mode: approximately 400 μm
[1]; listed as PC-14-005
  d10: 6.363 μm
  d50: 18.345 μm
  d90: 86.906 μm
  D[4,3] Volume weighted mean: 36.720

## O=C(/C=C\n1cnc(-c2cc(C(F)(F)F)cc(C(F)(F)F)c2)n1)NNc1cnccn1 [Selinexor, (Z)-3-(3-(3,5-bis(trifluoromethyl)phenyl)-1H-1,2,4-triazol-1-yl)-N′-(pyrazin-2-yl)acrylohydrazide]
[5]; 20% MeCN:80% Water, volumes of solvent
  Solubility: Not dissolved in 100 v
[5]; 40% MeCN:60% Water, volumes of solvent
  Solubility: Not dissolved in 100 v
[5]; 60% MeCN:40% Water, volumes of solvent
  Solubility: Dissolved in 50 v
[5]; 80% MeCN:20% Water, volumes of solvent
  Solubility: Dissolved in 30 v
[5]; 90% MeCN:10% Water, volumes of solvent
  Solubility: Dissolved in 30 v
[5]; Acetonitrile, volumes of solvent (1 volume in μL = sample mg), assessed at 50° C. and RT
  Solubility: Dissolved in 70 v
[5]; IPA:water mixtures having up to 60% water
  Solubility (visual): soluble
[5]; acetonitrile:water mixtures having up to 40% water
  Solubility (visual): soluble
[5]; heptane, 1,2-dichloroethane, toluene, cumene, diisopropylether, water and isooctane, 5 to 100 volumes
  Solubility (visual): not soluble
[5]; thirty solvents and solvent mixtures, 50° C./RT
  Share of the solvent systems investigated in which soluble: about 60 % of the solvent systems investigated
